# ± gives the expanded uncertainty stated by the source.
# Columns and labels:
# [1] = xn = mol fraction of the nth substance listed; settings: Liquid
# [2] = Liquid; for Critical pressure: Direct measurement; for Critical temperature: Visual observation in an unstirred cell
SMILES,Critical density ([1]; x2 = 0),Critical density [2],Critical pressure [2],Critical temperature [2],Critical density ([1]; x1 = 1),further results
FC(F)C(F)(F)F [pentafluoroethane] + COC(F)(F)C(F)(F)F,560 ± 13 kg/m3,–,–,–,–,–
"FC(C(F)(F)F)C(F)(F)F [1,1,1,2,3,3,3-heptafluoropropane]",–,598 ± 14 kg/m3,2930 ± 12 kPa,375 ± 0.16 K,–,–
"FC(F)C(F)C(F)(F)F (stereo not drawn) [1,1,1,2,3,3-hexafluoropropane]",–,562 ± 13 kg/m3,3416 ± 12 kPa,412.41 ± 0.16 K,–,–
"FC(C(F)(F)F)C(F)(F)F [1,1,1,2,3,3,3-heptafluoropropane] + COC(F)(F)C(F)(F)F",598 ± 14 kg/m3,–,–,–,–,–
COC(F)(F)C(F)(F)F [methyl pentafluoroethyl ether] + FC(F)C(F)C(F)(F)F,–,–,–,–,491 ± 11 kg/m3,–
COC(F)(F)C(F)(F)F [methyl pentafluoroethyl ether] + FC(F)C(F)(F)F,–,–,–,–,491 ± 11 kg/m3,Critical density ([1]; x1 = 0.1408): 551 ± 13 kg/m3; Critical density ([1]; x1 = 0.2438): 543 ± 13 kg/m3; Critical density ([1]; x1 = 0.4346): 540 ± 13 kg/m3; Critical density ([1]; x1 = 0.5897): 536 ± 12 kg/m3; Critical density ([1]; x1 = 0.7753): 521 ± 12 kg/m3
"FC(F)C(F)C(F)(F)F (stereo not drawn) [1,1,1,2,3,3-hexafluoropropane] + COC(F)(F)C(F)(F)F",562 ± 13 kg/m3,–,–,–,–,Critical density ([1]; x2 = 0.1546): 550 ± 13 kg/m3; Critical density ([1]; x2 = 0.3124): 535 ± 12 kg/m3; Critical density ([1]; x2 = 0.4485): 534 ± 12 kg/m3; Critical density ([1]; x2 = 0.6388): 520 ± 12 kg/m3; Critical density ([1]; x2 = 0.7888): 506 ± 12 kg/m3
COC(F)(F)C(F)(F)F [methyl pentafluoroethyl ether] + FC(C(F)(F)F)C(F)(F)F,–,–,–,–,491 ± 11 kg/m3,Critical density ([1]; x1 = 0.1823): 584 ± 14 kg/m3; Critical density ([1]; x1 = 0.306): 558 ± 13 kg/m3; Critical density ([1]; x1 = 0.4769): 545 ± 13 kg/m3; Critical density ([1]; x1 = 0.6944): 531 ± 12 kg/m3; Critical density ([1]; x1 = 0.8132): 519 ± 12 kg/m3
COC(F)(F)C(F)(F)F [methyl pentafluoroethyl ether] + FCC(F)(F)F,–,–,–,–,491 ± 11 kg/m3,Critical density ([1]; x1 = 0.1167): 508 ± 12 kg/m3; Critical density ([1]; x1 = 0.2446): 512 ± 12 kg/m3; Critical density ([1]; x1 = 0.4299): 509 ± 12 kg/m3; Critical density ([1]; x1 = 0.5886): 506 ± 12 kg/m3; Critical density ([1]; x1 = 0.7674): 503 ± 12 kg/m3
"FCC(F)(F)F [1,1,1,2-tetrafluoroethane]",–,508 ± 12 kg/m3,4053 ± 12 kPa,374.13 ± 0.16 K,–,–
"FCC(F)(F)F [1,1,1,2-tetrafluoroethane] + COC(F)(F)C(F)(F)F",508 ± 12 kg/m3,–,–,–,–,–
FC(F)C(F)(F)F [pentafluoroethane],–,560 ± 13 kg/m3,3617 ± 12 kPa,339.2 ± 0.16 K,–,–
COC(F)(F)C(F)(F)F [methyl pentafluoroethyl ether],–,491 ± 11 kg/m3,2885 ± 12 kPa,406.82 ± 0.16 K,–,–

# From the NIST ThermoML archive (doi:10.1021/je0499420)
